The record followed here is US8012963B2, “3,4-dihydro-2H-benzo[1,4]oxazine and thiazine derivatives as CETP inhibitors” (Janssen Pharmaceutica N.V., priority 2006, dated 2011).

“And” between values parts separate entries of the source, which are not always exact repeats. Identical values can stand only once.

For one experiment, the target named is T1, CETP (Homo sapiens, UniProt P11597).
T1 construct: from tissue; host or cells: human plasma from normal volunteers
T1 sequence (P11597 18-493): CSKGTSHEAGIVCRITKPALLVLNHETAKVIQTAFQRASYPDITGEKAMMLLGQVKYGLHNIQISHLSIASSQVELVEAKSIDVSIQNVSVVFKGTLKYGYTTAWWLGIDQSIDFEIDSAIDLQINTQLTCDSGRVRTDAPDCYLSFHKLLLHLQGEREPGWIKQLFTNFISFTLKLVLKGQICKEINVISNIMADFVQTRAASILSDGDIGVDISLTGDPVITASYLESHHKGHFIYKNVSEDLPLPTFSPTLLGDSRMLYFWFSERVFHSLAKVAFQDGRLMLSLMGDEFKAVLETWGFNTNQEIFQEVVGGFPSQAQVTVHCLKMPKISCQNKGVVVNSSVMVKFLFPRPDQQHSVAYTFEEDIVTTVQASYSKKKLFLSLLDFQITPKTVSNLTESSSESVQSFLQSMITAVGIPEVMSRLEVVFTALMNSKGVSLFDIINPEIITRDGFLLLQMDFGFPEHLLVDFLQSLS
The experiment can be described thus: CETP in vitro assay ([3H]CE-HDL transfer, Amersham kit TRKQ7005; modified protocol in human plasma). It is filed as biochemical. The following applies: 1 μM compound; multiple values = multiple measurements. The procedure: The CETP inhibitory activity of the compounds was determined using a commercially available kit from Amersham Biosciences (Catalog #TRKQ7005).
For the measurement of inhibitory activity in human plasma, a modified protocol (Connolly, D. T. et al., Biochemistry, 39 13870-13879, 2000) was used. Briefly, 80 μl of human plasma (obtained from normal volunteers), approximately 25 μg/ml (200) of [^3H]CE-HDL (Amersham Biosciences from kit TRKQ7005) and 1 μl of compound dissolved in DMSO was incubated for at least 4 hrs at 37° C. and non-specific transfer was determined by incubating a corresponding plate at 4° C. (blank). After the incubation period, 100 of a solution of 1% Dextralip 50/0.5M MgCl2, pH 7.4 was added, vortexed and incubated at room temperature for 10 min. The plate was then centrifuged for 30 min at 10° C. at 3000 rpm in a Sorvall RT6000B centrifuge. Fifty microliters of the supernatant was transferred to a Picoplate (Packard) containing 100 μl of Microscint 40 (Perkin Elmer) and mixed for 30 min using a plate mixer. The radioactivity was counted using a TopCount (Perkin Elmer) and the % control was determined in the samples using the following formula: % transfer relative to vehicle controls (% control)=[cpm blank-cpm test]/cpm blank/cpm control]×100. IC50s were calculated from plots of the % control versus compound concentration.
A variety of example compounds have been made and tested, with a range of in vitro results. Below, in Table 2, are representative compounds and the corresponding data; in some cases, where multiple IC50's are shown, multiple measurements were taken. Naturally, different compounds in Formula (I), (Ia), (Ib) and (Ic) may have not activities identical to any one compound below.
With `COC(=O)N1c2cccc(-c3cccc(OC(F)(F)F)c3)c2OCC1c1cccc(OC(F)(F)C(F)F)c1` (centres unmarked) [Compound 20, 3-[3-(1,1,2,2-Tetrafluoro-ethoxy)-phenyl]-8-(3-trifluoromethoxy-phenyl)-2,3-dihydro-benzo[1,4]oxazine-4-carboxylic acid methyl ester], the inhibition – broadly, the drop in the measured response relative to a control, in per cent – at 1 µM was 16%.

As to `CCOC(=O)N1c2cccc(-c3cccc(OC(F)(F)F)c3)c2OCC1c1cccc(OC(F)(F)C(F)F)c1` (centres unmarked) [Compound 21, 3-[3-(1,1,2,2-Tetrafluoro-ethoxy)-phenyl]-8-(3-trifluoromethoxy-phenyl)-2,3-dihydro-benzo[1,4]oxazine-4-carboxylic acid ethyl ester], at 1 µM the inhibition was 2%.

For the compound `CC(C)(C)[Si](C)(C)OCCN1c2cccc(-c3cccc(OC(F)(F)F)c3)c2OCC1c1cccc(OC(F)(F)C(F)F)c1` (centres unmarked) [Compound 22, 4-[2-(tert-Butyl-dimethyl-silanyloxy)-ethyl]-3-[3-(1,1,2,2-tetrafluoro-ethoxy)-phenyl]-8-(3-trifluoromethoxy-phenyl)-3,4-dihydro-2H-benzo[1,4]oxazine], at 1 µM the inhibition was 13%.

Compound `OCCN1c2cccc(-c3cccc(OC(F)(F)F)c3)c2OCC1c1cccc(OC(F)(F)C(F)F)c1` (centres unmarked) [Compound 23, 2-[3-[3-(1,1,2,2-Tetrafluoro-ethoxy)-phenyl]-8-(3-trifluoromethoxy-phenyl)-2,3-dihydro-benzo[1,4]oxazin-4-yl]-ethanol] showed an inhibition at 1 µM of 29%.

In turn, `COCCN1c2cccc(-c3cccc(OC(F)(F)F)c3)c2OCC1c1cccc(OC(F)(F)C(F)F)c1` (centres unmarked) [Compound 24, 4-(2-Methoxy-ethyl)-3-[3-(1,1,2,2-tetrafluoro-ethoxy)-phenyl]-8-(3-trifluoromethoxy-phenyl)-3,4-dihydro-2H-benzo[1,4]oxazine] showed an inhibition at 1 µM of 25%.

With `CC(C)(C)[Si](C)(C)OCCCN1c2cccc(-c3cccc(OC(F)(F)F)c3)c2OCC1c1cccc(OC(F)(F)C(F)F)c1` (centres unmarked) [Compound 25, 4-[3-(tert-Butyl-dimethyl-silanyloxy)-propyl]-3-[3-(1,1,2,2-tetrafluoro-ethoxy)-phenyl]-8-(3-trifluoromethoxy-phenyl)-3,4-dihydro-2H-benzo[1,4]oxazine], 1 µM produced 13% inhibition.

`OCCCN1c2cccc(-c3cccc(OC(F)(F)F)c3)c2OCC1c1cccc(OC(F)(F)C(F)F)c1` (centres unmarked) [Compound 26, 3-[3-[3-(1,1,2,2-Tetrafluoro-ethoxy)-phenyl]-8-(3-trifluoromethoxy-phenyl)-2,3-dihydro-benzo[1,4]oxazin-4-yl]-propan-1-ol] had an inhibition at 1 µM of 10%.

For `COCCCN1c2cccc(-c3cccc(OC(F)(F)F)c3)c2OCC1c1cccc(OC(F)(F)C(F)F)c1` (centres unmarked) [Compound 27, 4-(3-Methoxy-propyl)-3-[3-(1,1,2,2-tetrafluoro-ethoxy)-phenyl]-8-(3-trifluoromethoxy-phenyl)-3,4-dihydro-2H-benzo[1,4]oxazine], the inhibition at 1 µM was 29%.

For `CN(C)CCN1c2cccc(-c3cccc(OC(F)(F)F)c3)c2OCC1c1cccc(OC(F)(F)C(F)F)c1` (centres unmarked) [Compound 28, Dimethyl-{2-[3-[3-(1,1,2,2-tetrafluoro-ethoxy)-phenyl]-8-(3-trifluoromethoxy-phenyl)-2,3-dihydro-benzo[1,4]oxazin-4-yl]-ethyl}-amine], the inhibition at 1 µM is 9%.

Consider `FC(F)C(F)(F)Oc1cccc(C2COc3c(-c4cccc(OC(F)(F)F)c4)cccc3N2CCN2CCOCC2)c1` (centres unmarked) [Compound 29, 4-(2-Morpholin-4-yl-ethyl)-3-[3-(1,1,2,2-tetrafluoro-ethoxy)-phenyl]-8-(3-trifluoromethoxy-phenyl)-3,4-dihydro-2H-benzo[1,4]oxazine], for which the inhibition at 1 µM was found to be 0%.

`FC(F)C(F)(F)Oc1cccc(C2COc3c(-c4cccc(OC(F)(F)F)c4)cccc3N2CCN2CCNCC2)c1` (centres unmarked) [Compound 30, 4-(2-piperazin-1-yl-ethyl)-3-[3-(1,1,2,2-tetrafluoro-ethoxy)-phenyl]-8-(3-trifluoromethoxy-phenyl)-3,4-dihydro-2H-benzo[1,4]oxazine] showed an inhibition at 1 µM of 0%.

Compound `CN1CCN(CCN2c3cccc(-c4cccc(OC(F)(F)F)c4)c3OCC2c2cccc(OC(F)(F)C(F)F)c2)CC1` (centres unmarked) [Compound 31, 4-[2-(4-Methyl-piperazin-1-yl)-ethyl]-3-[3-(1,1,2,2-tetrafluoro-ethoxy)-phenyl]-8-(3-trifluoromethoxy-phenyl)-3,4-dihydro-2H-benzo[1,4]oxazine] registered an inhibition at 1 µM of 17%.

`CN1c2cccc(-c3cccc(OC(F)(F)F)c3)c2OCC1c1cccc(OC(F)(F)C(F)F)c1` (centres unmarked) [Compound 32, 4-Methyl-3-[3-(1,1,2,2-tetrafluoro-ethoxy)-phenyl]-8-(3-trifluoromethoxy-phenyl)-3,4-dihydro-2H-benzo[1,4]oxazine] gave an inhibition at 1 µM of 0%.

`CCN1c2cccc(-c3cccc(OC(F)(F)F)c3)c2OCC1c1cccc(OC(F)(F)C(F)F)c1` (centres unmarked) [Compound 33, 4-Ethyl-3-[3-(1,1,2,2-tetrafluoro-ethoxy)-phenyl]-8-(3-trifluoromethoxy-phenyl)-3,4-dihydro-2H-benzo[1,4]oxazine]: the inhibition at 1 µM was determined as 24%.

Compound `CCCN1c2cccc(-c3cccc(OC(F)(F)F)c3)c2OCC1c1cccc(OC(F)(F)C(F)F)c1` (centres unmarked) [Compound 34, 4-Propyl-3-[3-(1,1,2,2-tetrafluoro-ethoxy)-phenyl]-8-(3-trifluoromethoxy-phenyl)-3,4-dihydro-2H-benzo[1,4]oxazine] had an inhibition at 1 µM of 38%.

For the compound `C[C@@H](O)CN1c2cccc(-c3cccc(OC(F)(F)F)c3)c2OC[C@@H]1c1cccc(OC(F)(F)C(F)F)c1` [Compound 35, 4H-1,4-Benzoxazine-4-ethanol, 2,3-dihydro-α-methyl-3-[3-(1,1,2,2-tetrafluoroethoxy)phenyl]-8-[3-(trifluoromethoxy)phenyl]-, (3S,αR)—], the inhibition at 1 µM turned out to be 47%.

Compound `C[C@H](O)CN1c2cccc(-c3cccc(OC(F)(F)F)c3)c2OC[C@@H]1c1cccc(OC(F)(F)C(F)F)c1` [Compound 36, 4H-1,4-Benzoxazine-4-ethanol, 2,3-dihydro-α-methyl-3-[3-(1,1,2,2-tetrafluoroethoxy)phenyl]-8-[3-(trifluoromethoxy)phenyl]-, (3S,αS)—] displayed an inhibition at 1 µM of 28%.

In turn, `O=C(CN1c2cccc(-c3cccc(OC(F)(F)F)c3)c2OC[C@@H]1c1cccc(OC(F)(F)C(F)F)c1)C(F)(F)F` [Compound 37, 2-Propanone, 3-[(3S)-2,3-dihydro-3-[3-(1,1,2,2-tetrafluoroethoxy)phenyl]-8-[3-(trifluoromethoxy)phenyl]-4H-1,4-benzoxazin-4-yl]-1,1,1-trifluoro-] yielded an inhibition at 1 µM of 5%.

Take `CC(=O)CN1c2cccc(-c3cccc(OC(F)(F)F)c3)c2OC[C@@H]1c1cccc(OC(F)(F)C(F)F)c1` [Compound 38, 2-Propanone, 1-[(3S)-2,3-dihydro-3-[3-(1,1,2,2-tetrafluoroethoxy)phenyl]-8-[3-(trifluoromethoxy)phenyl]-4H-1,4-benzoxazin-4-yl]-]: 1 µM produced 5% inhibition.

For the compound `NCCN1c2cccc(-c3cccc(OC(F)(F)F)c3)c2OCC1c1cccc(OC(F)(F)C(F)F)c1` (centres unmarked) [Compound 39, 2-[3-[3-(1,1,2,2-Tetrafluoro-ethoxy)-phenyl]-8-(3-trifluoromethoxy-phenyl)-2,3-dihydro-benzo[1,4]oxazin-4-yl]-ethylamine], testing at 1 µM gave an inhibition of 2%.

In turn, `CC(=O)NCCN1c2cccc(-c3cccc(OC(F)(F)F)c3)c2OCC1c1cccc(OC(F)(F)C(F)F)c1` (centres unmarked) [Compound 40, N-{2-[3-[3-(1,1,2,2-Tetrafluoro-ethoxy)-phenyl]-8-(3-trifluoromethoxy-phenyl)-2,3-dihydro-benzo[1,4]oxazin-4-yl]-ethyl}-acetamide] registered an inhibition at 1 µM of 0%.

Turning to `COC(=O)NCCN1c2cccc(-c3cccc(OC(F)(F)F)c3)c2OCC1c1cccc(OC(F)(F)C(F)F)c1` (centres unmarked) [Compound 41, {2-[3-[3-(1,1,2,2-Tetrafluoro-ethoxy)-phenyl]-8-(3-trifluoromethoxy-phenyl)-2,3-dihydro-benzo[1,4]oxazin-4-yl]-ethyl}-carbamic acid methyl ester], at 1 µM the inhibition was 2%.

Still in this experiment, the particulars now being: 1 μM compound; multiple values = multiple measurements; 1 µM.
As to `CCCN1c2cccc(-c3cccc(OC(F)(F)F)c3)c2OCC1c1cccc(OC(F)(F)C(F)F)c1` (centres unmarked) [Compound 34, 4-Propyl-3-[3-(1,1,2,2-tetrafluoro-ethoxy)-phenyl]-8-(3-trifluoromethoxy-phenyl)-3,4-dihydro-2H-benzo[1,4]oxazine], the “% Inhibition @ 1 μM” value came out at 39%.

Consider `C[C@@H](O)CN1c2cccc(-c3cccc(OC(F)(F)F)c3)c2OC[C@@H]1c1cccc(OC(F)(F)C(F)F)c1` [Compound 35, 4H-1,4-Benzoxazine-4-ethanol, 2,3-dihydro-α-methyl-3-[3-(1,1,2,2-tetrafluoroethoxy)phenyl]-8-[3-(trifluoromethoxy)phenyl]-, (3S,αR)—], for which the “% Inhibition @ 1 μM” value came out at 52%.

Still in this experiment, the particulars now being: multiple values = multiple measurements.
On to `CCCN1c2cccc(-c3cccc(OC(F)(F)F)c3)c2OCC1c1cccc(OC(F)(F)C(F)F)c1` (centres unmarked) [Compound 34, 4-Propyl-3-[3-(1,1,2,2-tetrafluoro-ethoxy)-phenyl]-8-(3-trifluoromethoxy-phenyl)-3,4-dihydro-2H-benzo[1,4]oxazine], for which half-maximal inhibition (IC50) was put at 190 nM.

In the case of `C[C@@H](O)CN1c2cccc(-c3cccc(OC(F)(F)F)c3)c2OC[C@@H]1c1cccc(OC(F)(F)C(F)F)c1` [Compound 35, 4H-1,4-Benzoxazine-4-ethanol, 2,3-dihydro-α-methyl-3-[3-(1,1,2,2-tetrafluoroethoxy)phenyl]-8-[3-(trifluoromethoxy)phenyl]-, (3S,αR)—], the half-inhibitory concentration (IC50) (usually the concentration needed to halve the response being measured) is 26 nM and 117 nM and 121 nM.
